Reference: US20210252025A1, “SYNERGIC PHARMACEUTICAL COMBINATION OF A SELECTIVE INHIBITOR OF CYCLOOXYGENASE-2 AND AN ANTHRAQUINONE DERIVATIVE” (priority 2018, published 2021)

Legend:
[1] = system: rats with gout induced by intra-articular uric acid; test: Pain-induced functional impairment model in the rat (PIFIR model), antinociceptive effects; type: in vivo, male Wistar rats
Procedure: The following compounds were employed: uric acid, celecoxib and diacerein, propylene glycol, carboxymethyl cellulose and mineral oil. The celecoxib and diacerein were dissolved in propylene glycol (5%) and carboxymethyl cellulose.
It started with determining the antinociceptive effects of the individual compounds to then go on to analyze the effects of the combination, employing the “Pain-induced functional impairment model in the rat” (“PIFIR model”). The animals were anesthetized in a glass desiccator, saturated with ether vapor. The gout was induced by applying an intra-articular injection (i.a.) of 0.05 ml of uric acid suspended in mineral oil at 30% in the right hind member, precisely in the femur-tibia-patella joint.
A 1 mL glass syringe with a 4-mm-long No. 22 needle was used for the intra-articular injection. Immediately afterwards, an electrode is attached to each hind paw (of the rats) in the middle of the plantar calluses. The rats were left to recover from the anesthesia and placed in a 30-cm-diameter rotary stainless-steel cylinder. The cylinder was turned at 4 r.p.m., forcing the rats to walk for 2 min every half hour, for a total of 6.5 hours, (2.5 h to generate the arthritis and 4 h for the assessment of antinociceptive effects. The variable measured was the contact time of each one of the rats' hind legs in the cylinder.
First it was decided to determine the range of doses that could form the celecoxib dose/response curve. […] The 50 mg/kg dose of diacerein has been determined to be a proper dose in the preclinical stage to be employed in combination and be able to determine if changes are produced in the antinociceptive effects.
Thus, the possible antinociceptive effects of both the individual and the combined forms of the compounds were determined and analyzed using animals with gout in the experimental model of Pain-induced functional impairment model in the rat. […]
After the uric acid was administered to the joint to produce the gout type impairment and alteration, there was a wait of 2.5 hours for the total impairment to be produced (the symptoms of gout were already complete at 2.5 hours after the uric acid was administered). This time (2.5 hours after the administration of the uric acid) was considered to be “0” time, for administering the treatment, at this moment, with the individual drugs and the drugs in combined form, followed by the temporary courses of each treatment being determined for the following 4 hours. […]
From the afore-described that corresponds to the experimental model of preclinical analysis of this combination of celecoxib with diacerein whose protection is being sought, the following results were obtained: The data are expressed as a percentage Functionality Index (FI %). […]

rats = test: Assessment of toxic effects (lethality), oral
From the text: In order to determine possible antinociceptive effects and toxic effects, male Wistar rats [Crl:(WI)BR] were employed with a weight of between 180 and 200 g. All the experimental procedures followed the recommendations of the Committee for Research and Ethical Issues of the International Association for the Study of Pain and the Guidelines on Ethical Standards for Investigations of Experiment Pain in Animals. The number of animals for experimentation was kept to a minimum (6 animals per experimental point for antinociceptive effects and 10 animals per experimental point for adverse effects: lethality). The animals were kept in a room with alternating dark/light cycles. Twelve hours before the antinociception experiments, food was withdrawn from the rats, only leaving them free access to water. All the experiments were carried out during the light phase.
In the determinations presented for the individual drugs or drugs in combination, an attempt was made to administer the treatment on a single occasion but, when this was not possible owing to the high concentration and limits of solubility, several administrations were made with 3-hour time intervals. The established doses were always increased in logarithmic units administered orally both for celecoxib and for diacerein.
In the determinations presented below, the treatment was administered on a single occasion and, in the case of celecoxib, high doses in several administrations until the required dose is completed. The established doses were always increased in logarithmic units and administered orally.

[2] = cited from earlier work

SMILES | maximum antinociceptive effectiveness (AUC of temporary courses, DRC) ([1]; celecoxib by itself, oral, acute administration, doses 3.2 to 1000 mg/kg, 4 h assessment, mean ± standard error, FIG. 2) | temporary courses of antinociceptive effect (FI %), dose dependence ([1]; oral, acute administration, 4 h, celecoxib 3.2 to 1000 mg/kg alone or with diacerein 50 mg/kg) | antinociceptive effects of chronic treatment compared with acute administration ([1]; oral, chronic (7 days) vs acute form) | dose that starts to generate effects of lethality at 24 hours (rats; oral, rats, 24 h post-treatment, FIG. 7) | dose that starts to generate effects of lethality at 48 hours (rats; oral, rats, 48 h post-treatment, FIG. 8) | dose that starts to generate effects of lethality at 72 hours (rats; oral, rats, 72 h post-treatment, FIG. 9) | binding to plasma proteins ([2]; in vivo) | time to maximum plasma concentration ([2]; oral) | antinociceptive effect (recovery of FI %) ([1]; 50 mg/kg oral doses, 4 h of assessment) | dose that starts to generate effects of lethality at 48 hours (rats; male, Wistar [Crl:(WI)BR], rat, in vivo, po, 48 h) | dose that starts to generate effects of lethality at 72 hours (rats; male, Wistar [Crl:(WI)BR], rat, in vivo, po, 72 h) | position of the DRC for the effects of lethality (rats; oral, rats, relative to the DRC of celecoxib by itself)
Cc1ccc(-c2cc(C(F)(F)F)nn2-c2ccc(S(N)(=O)=O)cc2)cc1 [celecoxib, 4-[5-(4-methylphenyl)-3-(trifluoromethyl)-1H-pyrazol-1-yl]benzenesulfonamide] | 191.9±27.2 au | dose-dependent antinociceptive effects | better antinociceptive effects | 17800 mg/kg | 10000 mg/kg | 5600 mg/kg | 97% | around 3 hours | – | – | – | –
CC(=O)Oc1cccc2c1C(=O)c1c(OC(C)=O)cc(C(=O)O)cc1C2=O [diacerein, 4,5-Bis(acetyloxy)-9,10-dihydro-9,10-dioxo-2-anthracenecarboxylic acid] | – | – | – | – | – | – | – | – | did not show any antinociceptive effect whatsoever | 1800 mg/kg | 1000 mg/kg | more to the left of that of celecoxib
